The source of these data is patent US20260258035A1, “FIVE-MEMBERED AND SIX-MEMBERED NITROGEN-CONTAINING COMPOUND, AND INTERMEDIATE, PREPARATION METHOD AND USE THEREOF” (HANGZHOU SYNRX THERAPEUTICS BIOMEDICAL TECHNOLOGY CO., LTD., priority 2022, published 2026).

The subject of one series is HCC1806. Kind of series: Cell viability assay (CellTiter-Glo). The format is cell-based, Human. The note with it: Homo sapiens, HCC1806, 168 h, HCC1806, 7 days, CellTiter-Glo; read-out: IC50 (nM) in cell viability assay. (In general: ATP-based viability assays read luminescence as a measure of living cells.)
A further series addresses T1, PXR (Homo sapiens, UniProt O75469).
T1 construct: host or cells: DPX2 (HepG2)
T1 sequence (O75469 1-434): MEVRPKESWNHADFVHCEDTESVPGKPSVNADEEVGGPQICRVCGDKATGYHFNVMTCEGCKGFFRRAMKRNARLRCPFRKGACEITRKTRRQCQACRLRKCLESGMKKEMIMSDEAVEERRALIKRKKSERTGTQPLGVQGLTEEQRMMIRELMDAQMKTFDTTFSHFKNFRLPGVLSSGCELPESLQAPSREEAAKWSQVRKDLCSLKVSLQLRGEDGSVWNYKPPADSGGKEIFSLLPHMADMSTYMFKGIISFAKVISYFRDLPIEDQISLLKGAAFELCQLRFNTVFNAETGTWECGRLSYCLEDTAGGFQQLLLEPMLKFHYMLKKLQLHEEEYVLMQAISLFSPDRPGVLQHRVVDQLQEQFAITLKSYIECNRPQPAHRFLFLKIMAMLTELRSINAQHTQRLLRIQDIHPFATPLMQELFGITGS
Kind of series: PXR assay (DPX2 luciferase reporter cells). Type of series: cell-based. Conditions: 24 h; for PXR Activation @30 uM (% Ctrl): positive control rifampicin. On the procedure: 1) Information of Cell Line
DPX2 (HepG2 cells stably transfected with PXR and luciferase reporter) cells were purchased from Puracyp Inc (Carlsbad, CA).
2) Experimental Procedures a) Reagents and Consumables
The DPX2 cells were cultured in the growth medium containing 1000 fetal bovine serum. The DPX2 cells in a T-75 flask were cultured in the […] incubator at 37° C. with 950% relative humidity, and digested when the cells grew to cover 80-90% of the bottom of the flask.
The surface layer of the T-75 cultured cells was washed with 10 mL of PBS; PBS was pipetted; 3-5 mL of tryp sin was added; the cells were digested at 37° C. for 5 minutes or until the cells were digested to be suspended; and excessive medium containing fetal bovine serum was added to stop trypsinization. The cell suspension was transferred to a conical-bottomed centrifuge tube and centrifuged at 150 g rpm for 5 minutes at room temperature; the supernatant was carefully pipetted; and the cells were resuspended with the treatment medium, with the concentration adjusted to 3.2×10^5 cells/mL (incubation time: 24 hours, plate seeding density: […]). 25 μL of the cell suspension was added to each well of the 384-well cell culture plate.
The cell culture plate was placed and cultured for 24 h in the […] incubator with 9500 humidity at 37° C. c) Formulation of Compound
The stock solution of each of 1000× test compound, the positive control (rifampicin), and the negative control (propranolol) was prepared with DMSO. The final concentrations of the positive control (rifampicin) were 1 μM and 10 μM, and the final concentration of the negative control (propranolol) was 10 μM. The final concentrations of the test compound were 10 μM, 1 μM, 0.1 μM, or EC50 (30 μM, 10 μM, 3 μM, 1 μM, 0.3 μM, 0.1 μM). The final concentration of DMSO was 0.10. The cell culture plate was taken out from the incubator, and 25 nL of the stock solution of the positive control, negative control or test compound was directly added with Echo, each with three parallel concentrations. The cell culture plate was placed in the incubator and continued to be incubated for 24 h. Before starting the assay with the substrate, the cell morphology and the monolayer integrity were checked to ensure that the monolayer was of acceptable research quality. […]
d) Quantitative Detection with PXR Activation
After 24 hours of dosing, the culture could be quantitatively detected with PXR activation. The CellTiter-Fluor™ Cell Viability Assay Kit and One-Glo Luciferase reagent were equilibrated to room temperature. The GF-AFC substrate (10 μL) was added to the assay buffer (10 ml) to develop a 2× reagent, which was then diluted into a 1× reagent with 10 ml of PBS. The ONE-Glo Luciferase substrate was added to the ONE-Glo Luciferase assay buffer. The culture plate was taken out from the incubator; the medium was discarded; 1× of CellTiter-Fluor™ reagent was poured into the loading slot; 25 μL of reagent were added per well to the culture plate with a pipetting workstation; and the culture plate was then incubated in the incubator for 30 minutes. The cell culture plate was taken out from the incubator, and cooled slightly to room temperature; and the fluorescence value was determined with a fully automatic quantitative microplate reader, with the excitation light of 400 nm and the emission light of 505 nm. The ONE-Glo reagent was poured into the loading slot, with 25 μL per well, and the resulting mixture was gently mixed in the plate, and incubated at room temperature for 5 minutes to determine the luminescence value.

The target of a further series is PARG (Homo sapiens, UniProt Q86W56). Kind of series: Biochemical assay (PARG, TFMU-ADPr substrate). The note with it: PARG, TFMU-ADPr substrate.

As a reminder, the IC50 is the point on the concentration scale where inhibition reaches its midpoint.

PARG, sequence (Q86W56 whole entry): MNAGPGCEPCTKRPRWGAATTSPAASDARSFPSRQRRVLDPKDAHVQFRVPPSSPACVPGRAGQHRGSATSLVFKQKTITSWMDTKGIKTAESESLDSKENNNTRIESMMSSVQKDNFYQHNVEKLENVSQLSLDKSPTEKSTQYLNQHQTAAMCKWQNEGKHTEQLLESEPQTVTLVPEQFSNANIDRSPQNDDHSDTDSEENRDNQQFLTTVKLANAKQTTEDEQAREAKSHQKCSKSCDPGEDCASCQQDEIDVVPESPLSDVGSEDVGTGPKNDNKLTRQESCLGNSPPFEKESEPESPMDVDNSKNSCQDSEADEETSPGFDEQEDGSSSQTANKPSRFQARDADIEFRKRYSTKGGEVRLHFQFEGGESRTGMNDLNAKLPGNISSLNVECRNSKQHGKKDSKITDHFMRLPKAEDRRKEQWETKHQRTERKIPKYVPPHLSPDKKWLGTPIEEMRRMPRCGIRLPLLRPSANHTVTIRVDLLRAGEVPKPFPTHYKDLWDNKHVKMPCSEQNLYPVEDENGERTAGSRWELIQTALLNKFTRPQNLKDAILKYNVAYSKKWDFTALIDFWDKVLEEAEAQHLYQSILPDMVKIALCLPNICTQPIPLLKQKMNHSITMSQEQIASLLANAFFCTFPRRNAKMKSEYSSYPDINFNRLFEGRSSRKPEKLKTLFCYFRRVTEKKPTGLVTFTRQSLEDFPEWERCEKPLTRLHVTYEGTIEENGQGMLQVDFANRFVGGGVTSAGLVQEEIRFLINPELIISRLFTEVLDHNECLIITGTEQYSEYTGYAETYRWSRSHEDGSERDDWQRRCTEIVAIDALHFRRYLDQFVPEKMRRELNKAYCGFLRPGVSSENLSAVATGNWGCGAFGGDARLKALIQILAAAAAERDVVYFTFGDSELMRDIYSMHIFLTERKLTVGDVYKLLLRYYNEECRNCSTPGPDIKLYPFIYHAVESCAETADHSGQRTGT

In the case of `C[C@H]1CN(c2cc(S(=O)(=O)NC3(C)COC3)cn3c(-c4nnc(C(F)F)s4)ncc23)C[C@H](C)N1` [Example 179, 3-(5-(difluoromethyl)-1,3,4-thiadiazol-2-yl)-8-((3S,5S)-3,5-dimethylpiperazin-1-yl)-N-(3-methyloxetan-3-yl)imidazo[1,5-a]pyridine-6-sulfonamide], the IC50 in the series on HCC1806 came out at 24 nM. Further, on PXR, the “PXR Activation @30 uM (Fold)” value is given as 3.2 Fold and the “PXR Activation @30 uM (% Ctrl)” value is reported as 22 % Ctrl. In addition, the IC50 at PARG turned out to be 0.35 nM.
On the same counts, the results for `COC1(C(=O)N2CCN(c3cc(S(=O)(=O)NC4(C)CC4)cn4c(-c5nnc(C(F)(F)F)s5)ncc34)CC2)CC1` [Example 193, 8-(4-(1-methoxycyclopropane-1-carbonyl)piperazin-1-yl)-N-(1-methylcyclopropyl)-3-(5-(trifluoromethyl)-1,3,4-thiadiazol-2-yl)imidazo[1,5-a]pyridine-6-sulfonamide] are 5.76 nM, 2.4 Fold, 15 % Ctrl and 0.36 nM.
On the same counts, the results for `N#CC1(NS(=O)(=O)c2cc(N3CCN(C(=O)c4ccncc4)CC3)c3cnc(-c4nnc(C(F)(F)F)s4)n3c2)CC1` [Example 254, N-(1-cyanocyclopropyl)-8-(4-isonicotinoylpiperazin-1-yl)-3-(5-(trifluoromethyl)-1,3,4-thiadiazol-2-yl)imidazo[1,5-a]pyridine-6-sulfonamide] are 700 nM, 1.6 Fold, 12 % Ctrl and 11.5 nM.
For `CC1(NS(=O)(=O)c2cc(N3CCN(C(=O)[C@@H]4CCN4)CC3)c3cnc(-c4nnc(C(F)(F)F)s4)n3c2)CC1` [Example 284, (S)-8-(4-(azetidine-2-carbonyl)piperazin-1-yl)-N-(1-methylcyclopropyl)-3-(5-(trifluoromethyl)-1,3,4-thiadiazol-2-yl)imidazo[1,5-a]pyridine-6-sulfonamide], in that order: 310 nM, 1.1 Fold, 7 % Ctrl and 16.6 nM.
Take `CN1CC[C@H]1C(=O)N1CCN(c2cc(S(=O)(=O)NC3(C)CC3)cn3c(-c4nnc(C(F)(F)F)s4)ncc23)CC1` [Example 285, (S)-8-(4-(1-methylazetidine-2-carbonyl)piperazin-1-yl)-N-(1-methylcyclopropyl)-3-(5-(trifluoromethyl)-1,3,4-thiadiazol-2-yl)imidazo[1,5-a]pyridine-6-sulfonamide]: the IC50 in the series with HCC1806 is 246 nM; against PARG it was 20 nM. At PXR, the “PXR Activation @30 uM (Fold)” value is given as 1.7 Fold. The “PXR Activation @30 uM (% Ctrl)” value at PXR was 10 % Ctrl.
On the same counts, the results for `CN1CC[C@@H]1C(=O)N1CCN(c2cc(S(=O)(=O)NC3(C)CC3)cn3c(-c4nnc(C(F)(F)F)s4)ncc23)CC1` [Example 287, (R)-8-(4-(1-methylazetidine-2-carbonyl)piperazin-1-yl)-N-(1-methylcyclopropyl)-3-(5-(trifluoromethyl)-1,3,4-thiadiazol-2-yl)imidazo[1,5-a]pyridine-6-sulfonamide] are 137 nM, 4.37 nM, 1.6 Fold and 15 % Ctrl.
On the same counts, the results for `COC1(C(=O)N2CCN(c3cc(S(=O)(=O)NC4(C)CC4)cn4c(-c5nnc(C(F)F)s5)ncc34)CC2)CNC1` [Example 311, 3-(5-(difluoromethyl)-1,3,4-thiadiazol-2-yl)-8-(4-(3-methoxyazetidine-3-carbonyl)piperazin-1-yl)-N-(1-methylcyclopropyl)imidazo[1,5-a]pyridine-6-sulfonamide] are 234 nM, 0.21 nM, 1.1 Fold and 5 % Ctrl.
For the molecule `CC1(NS(=O)(=O)c2cc(N3CCN(C(=O)[C@H]4CCCN4)CC3)c3cnc(-c4nnc(C(F)(F)F)s4)n3c2)CC1` [Example 324, (R)-N-(1-methylcyclopropyl)-8-(4-prolylpiperazin-1-yl)-3-(5-(trifluoromethyl)-1,3,4-thiadiazol-2-yl)imidazo[1,5-a]pyridine-6-sulfonamide], the IC50 in the series with HCC1806 came out at 205 nM. Further, at PXR, the “PXR Activation @30 uM (Fold)” value is 1.8 Fold and the “PXR Activation @30 uM (% Ctrl)” value is 14 % Ctrl. In addition, the IC50 against PARG worked out at 4.29 nM.
On the same counts, the results for `CN1CCC1(C)C(=O)N1CCN(c2cc(S(=O)(=O)NC3(C)CC3)cn3c(-c4nnc(C(F)(F)F)s4)ncc23)CC1` (stereo not shown) [Example 330, 8-(4-(1,2-dimethylazetidine-2-carbonyl)piperazin-1-yl)-N-(1-methylcyclopropyl)-3-(5-(trifluoromethyl)-1,3,4-thiadiazol-2-yl)imidazo[1,5-a]pyridine-6-sulfonamide] are 194 nM, 1.3 Fold, 9 % Ctrl and 6.55 nM.
With `CC1(NS(=O)(=O)c2cc(N3CCN(c4ccc[nH]c4=O)CC3)c3cnc(-c4nnc(C(F)(F)F)s4)n3c2)CC1` [Example 336, N-(1-methylcyclopropyl)-8-(4-(2-oxo-1,2-dihydropyridin-3-yl)piperazin-1-yl)-3-(5-(trifluoromethyl)-1,3,4-thiadiazol-2-yl)imidazo[1,5-a]pyridine-6-sulfonamide], the IC50 in the series with HCC1806 was determined as 1080 nM. For the same molecule, on PXR, the “PXR Activation @30 uM (Fold)” value is listed as 0.3 Fold and the “PXR Activation @30 uM (% Ctrl)” value was 2 % Ctrl. On PARG, this molecule came in with an IC50 of 54.1 nM.
